Data from patent publication US11076595B2, “1-(n,n-disubstituted carbamoyl) 4-(substituted sulfonyl)triazolin-5-one derivative, 4-(n,n-disubstituted carbamoyl) 1-(substituted sulfonyl)triazolin-5-one derivative, and herbicide containing said derivative as active ingredient” (HOKKO CHEMICAL INDUSTRY CO., LTD., priority 2017, dated 2021).

How the values were obtained:
Format in all cases: in vivo
Amaranthus viridis [1] = assay: Test Example 14: herbicidal effect test by foliage treatment in upland field; conditions: 7 days after sowing, 120 g/10a, 14 days after treatment
Summary of the method: (§1)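 Weeds sown 20 seeds each in alluvial field soil; 7 days after sowing, water-diluted emulsifiable concentrate sprayed at 100 L per 10 are, 120 g active ingredient per 10 are. Suppression rate (%) from dry weight versus untreated plots at 14 days, two replicates.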

Echinochloa crus-galli [2] = assay: as above; conditions: 7 days after sowing, 120 g/10a, 14 days after treatment
Summary of the method: as §1

Monochoria vaginalis [3] = assay: Test Example 12: herbicidal effect test by treatment during growing period in paddy field; conditions: 120 g/10a; treatment seven days after sowing in flooded paddy pot; assessed 14 days after treatment
Summary of the method: (§2)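 Paddy soil + NPK 17:17:17, puddled; 30 seeds/species sown 0–1 cm; flooded ~3 cm, greenhouse. Day 7 post-sowing: EC diluted in water, applied dropwise into water, 120 g a.i./10 are. Day 14 post-treatment: dry weight vs untreated → % suppression; n=2.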

Lindernia pyxidaria [4] = assay: as above; conditions: 120 g/10a; treatment seven days after sowing in flooded paddy pot; assessed 14 days after treatment
Summary of the method: as §2

Scirpus juncoides [5] = assay: as above; conditions: 120 g/10a; treatment seven days after sowing in flooded paddy pot; assessed 14 days after treatment
Summary of the method: as §2

Echinochloa crus-galli [6] = assay: as above; conditions: 120 g/10a; treatment seven days after sowing in flooded paddy pot; assessed 14 days after treatment
Summary of the method: as §2

Chenopodium album [7] = assay: Test Example 14: herbicidal effect test by foliage treatment in upland field; conditions: 7 days after sowing, 120 g/10a, 14 days after treatment
Summary of the method: as §1

crabgrass [8] = assay: as above; conditions: 7 days after sowing, 120 g/10a, 14 days after treatment
Summary of the method: as §1

Chenopodium album [9] = assay: Test Example 13: herbicidal effect test by soil treatment in upland field; conditions: 120 g/10a, 14 days after treatment
Summary of the method: (§3)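 Pre-emergence soil spray, 1 d post-sowing; emulsifiable concentrate in water, 100 L/10 are, 120 g a.i./10 are. Pots 36 cm^2, alluvial soil, 20 seeds/species in top 1 cm. n=2; read 14 d; suppression % = (1 − treated/untreated mean dry weight) × 100.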

crabgrass [10] = assay: as above; conditions: 120 g/10a, 14 days after treatment
Summary of the method: as §3

Amaranthus viridis [11] = assay: as above; conditions: 120 g/10a, 14 days after treatment
Summary of the method: as §3

Echinochloa crus-galli [12] = assay: as above; conditions: 120 g/10a, 14 days after treatment
Summary of the method: as §3

Monochoria vaginalis [13] = assay: Test Example 11: herbicidal effect test by soil treatment in paddy field; conditions: 120 g/10a active ingredient, 14 days after treatment
Summary of the method: (§4)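 Pre-emergence paddy test, 120 g a.i./10 are, emulsifiable concentrate diluted in water and added dropwise to ~3 cm flood water right after sowing (30 seeds/species, 0–1 cm depth, fertilized puddled soil). Greenhouse; 2 replicates; dry-weight suppression (%) vs untreated, day 14.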

Lindernia pyxidaria [14] = assay: as above; conditions: 120 g/10a active ingredient, 14 days after treatment
Summary of the method: as §4

Scirpus juncoides [15] = assay: as above; conditions: 120 g/10a active ingredient, 14 days after treatment
Summary of the method: as §4

Echinochloa crus-galli [16] = assay: as above; conditions: 120 g/10a active ingredient, 14 days after treatment
Summary of the method: as §4

| Structure (SMILES) | herbicidal effect, Amaranthus viridis (Amaranthus viridis [1]) [%] | herbicidal effect, Echinochloa crus-galli (Echinochloa crus-galli [2]) [%] | Weed suppression rate (%) Monochoria vaginalis (Monochoria vaginalis [3]) [%] | Weed suppression rate (%) Lindemia pyxidaria (Lindernia pyxidaria [4]) [%] | Weed suppression rate (%) Scirpus juncoides (Scirpus juncoides [5]) [%] | Weed suppression rate (%) Echinochloa crus-galli (Echinochloa crus-galli [6]) [%] | herbicidal effect, Chenopodium album (Chenopodium album [7]) [%] | herbicidal effect, Crabgrass (crabgrass [8]) [%] | herbicidal effect, Chenopodium album (Chenopodium album [9]) [%] | herbicidal effect, Crabgrass (crabgrass [10]) [%] | herbicidal effect, Amaranthus viridis (Amaranthus viridis [11]) [%] | herbicidal effect, Echinochloa crus-galli (Echinochloa crus-galli [12]) [%] | Weed suppression rate (%) Monochoria vaginalis (Monochoria vaginalis [13]) [%] | Weed suppression rate (%) Lindemia pyxidaria (Lindernia pyxidaria [14]) [%] | Weed suppression rate (%) Scirpus juncoides (Scirpus juncoides [15]) [%] | Weed suppression rate (%) Echinochloa crus-galli (Echinochloa crus-galli [16]) [%] |
| --- | --- | --- | --- | --- | --- | --- | --- | --- | --- | --- | --- | --- | --- | --- | --- | --- |
| CC(C)N(C(=O)n1cnn(S(=O)(=O)C2CCCCC2)c1=O)c1c(F)cc(F)cc1F [Compound 11-298] | 60 | 100 | 80 | 80 | 100 | 100 | 70 | 100 | 60 | 100 | 60 | 100 | 100 | 100 | 100 | 100 |
| CC(C)N(C(=O)n1cnn(S(=O)(=O)C2CCCCC2)c1=O)c1ccc(F)cc1Cl [Compound 11-301] | 90 | 80 | 80 | 80 | 90 | 90 | 80 | 90 | 80 | 90 | 90 | 80 | 80 | 80 | 90 | 90 |
| CC(C)N(C(=O)n1cnn(S(=O)(=O)c2ccccc2)c1=O)c1ccc(F)cc1F [Compound 11-367] | 40 | 90 | 90 | 90 | 90 | 100 | 40 | 90 | 40 | 100 | 40 | 100 | 90 | 100 | 90 | 100 |
| CC(C)N(C(=O)n1cnn(S(=O)(=O)c2cccc(F)c2)c1=O)c1ccccc1 [Compound 11-427] | 40 | 40 | 90 | 90 | 90 | 90 | 60 | 90 | 60 | 90 | 40 | 70 | 60 | 80 | 60 | 100 |
| CCN(CC)C(=O)n1cnn(S(=O)(=O)c2ccc(F)cc2)c1=O [Compound 11-463] | 40 | 70 | 80 | 80 | 80 | 90 | 0 | 60 | 100 | 90 | 80 | 90 | 50 | 50 | 40 | 90 |
| CC(C)N(C(=O)n1cnn(S(=O)(=O)c2ccc(F)cc2)c1=O)c1ccc(F)cc1F [Compound 11-475] | 40 | 70 | 90 | 90 | 90 | 90 | 40 | 90 | 90 | 100 | 80 | 100 | 90 | 90 | 90 | 100 |
| CC(C)N(C(=O)n1cnn(S(=O)(=O)c2ccc(F)cc2)c1=O)c1ccc(F)cc1Cl [Compound 11-482] | 90 | 80 | 80 | 80 | 90 | 90 | 80 | 90 | 80 | 90 | 90 | 80 | 80 | 80 | 90 | 90 |
| CCN(CC)C(=O)n1cnn(S(=O)(=O)c2ccccc2Cl)c1=O [Compound 11-500] | 40 | 40 | 60 | 60 | 60 | 80 | 50 | 40 | 0 | 80 | 0 | 80 | 50 | 50 | 50 | 90 |
